# Patent US20080293696A1, “2-Aminoarylcarboxamides Useful as Cancer Chemotherapeutic Agents” (Bayer Pharmaceuticals Corporation, priority 2004, published 2008)
# pIC50: −log10 of the molar value. Where a name gives a salt, the structure may show the parent alone.
# Tested on: PAKT/PKB (p-(S473) AKT) in H209 small cell lung carcinoma cells stimulated with Stem Cell Factor
# Test: PAKT/PKB Cytoblot Assay with H209 cells (SCF-stimulated p-(S473) AKT)
# Format: cell-based
# Conditions: Homo sapiens, NCI-H209, compound 1 hour, SCF 25 ng/mL 5 minutes, group: between 500 nM and 1 μM (units in value)
# Description: PAKT/PKB Cytoblot Assay Protocol with H209 Cells
# H209 small cell lung carcinoma cells in log phase were plated at 50,000 cells/well in 96-well poly-lysine coated, clear bottom/black-sided plates (BD Cat # 354640) in 100 μl RPMI medium containing 0.1% (w/v) BSA, and incubated overnight at 37° C. in 5% CO2 incubator. The following day, compounds (10 mM stock solutions in DMSO) were added to the plates to generate final concentrations of 0.0, 0.01, 0.03, 0.1, 0.3, 1.0, 3.0 and 10 μM for IC50 determinations and incubated for 1 hour at 37° C. Cells were then left untreated or stimulated with Stem Cell Factor (SCF: Biosource Cat # PHC2116) at a final concentration of 25 ng/mL for 5 minutes at 37° C. in 5% CO2 incubator. The media was then removed using a vacuum manifold and the cells were washed once with Tris Buffered Saline (TBS).
# Cells were then fixed by adding 200 μl of cold 3.7% (v/v) formaldehyde in TBS to each well for 15 minutes at 4° C. After removal of the formaldehyde, the cells were treated with the addition of 50 μl of methanol (at −20° C.) to each well for 5 minutes. After removal of the methanol, […] of 1% (w/v) BSA in TBS was added to each well to block non-specific antibody binding sites and the plate was incubated at room temperature for 30 minutes.
# After removal of the blocking buffer, 50 μl of p-(S473) AKT rabbit polyclonal antibody (Cell Signaling Cat # 9277S) was added at a dilution of 1:250 in 0.1% (w/v) BSA in TBS, and the plate was incubated at room temperature for 1 hour. Plates were then washed 3 times with cold TBS containing 0.05% (v/v) Tween 20 (TBS-T) and […] of Horseradish peroxidase (HRP)-conjugated goat-anti-rabbit antibody (Amersham Cat # NA934V) at a dilution of 1:250 in TBS-T was added and the plate was incubated at room temperature for 1 h. After washing with ice-cold TBS-T four times, 100 μl of Enhanced Chemiluminescence (ECL) reagent (Amersham Cat# RPN2209) was added to each well and mixed on a mini-orbital shaker for 1 min. The plate was then read on a Perkin Elmer Victor 5 Multilabel Counter (#1420-0421).
row,SMILES,pIC50
1,"CN(C)CCCCNC(=O)c1cc(CNc2ccccc2C(=O)Nc2ccc3c(c2)OC(F)(F)O3)ccn1 [Example 90, 4-{[(2-{[(2,2-difluoro-1,3-benzodioxol-5-yl)amino]carbonyl}phenyl)amino]methyl}-N-[4-(dimethylamino)butyl]pyridine-2-carboxamide]",6.00 to 6.30
2,"O=C(Nc1ccc2c(c1)OC(F)(F)O2)c1ccccc1NCc1ccnc(NCCc2ccccc2)c1 [Example 150, N-(2,2-difluoro-1,3-benzodioxol-5-yl)-2-[({2-[(2-phenylethyl)amino]pyridin-4-yl}methyl)amino]benzamidetrifluoroacetate]",6.00 to 6.30
3,"O=C(NCCCN1CCCCC1)c1cc(CNc2ccccc2C(=O)Nc2ccc3c(c2)OC(F)(F)O3)ccn1 [Example 98, 4-{[(2-{[(2,2-difluoro-1,3-benzodioxol-5-yl)amino]carbonyl}phenyl)amino]methyl}-N-(3-piperidin-1-ylpropyl)pyridine-2-carboxamide]",6.00 to 6.30

# Next, values leading:
row,pIC50,SMILES
1,6.00 to 6.30,"CN(C)c1nccc(CNc2ccccc2C(=O)Nc2ccc3c(c2)OC(F)(F)C(F)(F)O3)n1 [Example 50, 2-({[2-(dimethylamino)pyrimidin-4-yl]methyl}amino)-N-(2,2,3,3-tetrafluoro-2,3-dihydro-1,4-benzodioxin-6-yl)benzamide]"
2,6.00 to 6.30,"NCC(O)CNc1cc(CNc2ccccc2C(=O)Nc2ccc3c(c2)OC(F)(F)O3)ccn1 (stereo not drawn) [Example 142, 2-[({2-[(3-amino-2-hydroxypropyl)amino]pyridin-4-yl}methyl)amino]-N-(2,2-difluoro-1,3-benzodioxol-5-yl)benzamidebis(trifluoroacetate)(salt)]"
3,6.00 to 6.30,"O=C(Nc1ccc2c(c1)OC(F)(F)O2)c1ccccc1NCc1ccnc(CO)c1 [Example 177, N-(2,2-difluoro-1,3-benzodioxol-5-yl)-2-({[2-(hydroxymethyl)pyridin-4-yl]methyl}amino)benzamide]"
4,6.00 to 6.30,"COCCOCC(=O)Nc1cc(CNc2ccccc2C(=O)Nc2ccc3c(c2)OC(F)(F)O3)ccn1 [Example 154, N-(2,2-difluoro-1,3-benzodioxol-5-yl)-2-{[(2{[(2-methoxyethoxy)acetyl]amino}pyridin-4-yl)methyl]amino}benzamide]"

# Same assay, conditions: Homo sapiens, NCI-H209, compound 1 hour, SCF 25 ng/mL 5 minutes, group: between 1 and 3 μM
row,pIC50,SMILES
1,5.52 to 6.00,"O=C(NCCc1c[nH]c2ccccc12)c1cc(CNc2ccccc2C(=O)Nc2ccc3c(c2)OC(F)(F)O3)ccn1 [Example 102, 4-{[(2-{[(2,2-difluoro-1,3-benzodioxol-5-yl)amino]carbonyl}phenyl)amino]methyl}-N-[2-(1H-indol-3-yl)ethyl]pyridine-2-carboxamide]"
2,5.52 to 6.00,"Cc1cc(CNc2ccccc2C(=O)Nc2ccc3c(c2)OC(F)(F)C(F)(F)O3)nc(Cl)n1 [Example 26, 2-{[(2-chloro-6-methylpyrimidin-4-yl)methyl]amino}-N-(2,2,3,3-tetrafluoro-2,3-dihydro-1,4-benzodioxin-6-yl)benzamide]"
3,5.52 to 6.00,"CCOc1cc(CCNC(=O)c2cc(CNc3ccccc3C(=O)Nc3ccc4c(c3)OC(F)(F)O4)ccn2)ccc1OC [Example 126, 4-{[(2-{[(2,2-difluoro-1,3-benzodioxol-5-yl)amino]carbonyl}phenyl)amino]methyl}-N-[2-(3-ethoxy-4-methoxyphenyl)ethyl]pyridine-2-carboxamide]"

# Same assay, conditions: Homo sapiens, NCI-H209, compound 1 hour, SCF 25 ng/mL 5 minutes, group: less than 500 nM
row,SMILES,pIC50
1,"CN1CCCC1CCNC(=O)c1cc(CNc2ccccc2C(=O)Nc2ccc3c(c2)OC(F)(F)O3)ccn1 (stereo not drawn) [Example 117, 4-{[(2-{[(2,2-difluoro-1,3-benzodioxol-5-yl)amino]carbonyl}phenyl)amino]methyl}-N-[2-(1-methylpyrrolidin-2-yl)ethyl]pyridine-2-carboxamide]",> 6.30
2,COC(=O)COCC(=O)Nc1cc(CNc2ccccc2C(=O)Nc2ccc3c(c2)OC(F)(F)O3)ccn1 [Example 157],> 6.30
3,"CN(C)CCCNC(=O)c1cc(CNc2ccccc2C(=O)Nc2ccc3c(c2)OC(F)(F)O3)ccn1 [Example 86, 4-{[(2-{[(2,2-difluoro-1,3-benzodioxol-5-yl)amino]carbonyl}phenyl)amino]methyl}-N-[3-(dimethylamino)propyl]pyridine2-carboxamide]",> 6.30
4,"O=C(NCCCn1ccnc1)c1cc(CNc2ccccc2C(=O)Nc2ccc3c(c2)OC(F)(F)O3)ccn1 [Example 96, 4-{[(2-{[(2,2-difluoro-1,3-benzodioxol-5-yl)amino]carbonyl}phenyl)amino]methyl}-N-[3-(1H-imidazol-1-yl)propyl]pyridine-2-carboxamide]",> 6.30
5,"O=C(NCc1ccco1)Nc1cc(CNc2ccccc2C(=O)Nc2ccc3c(c2)OC(F)(F)O3)ccn1 [Example 173, N-(2,2-difluoro-1,3-benzodioxol-5-yl)-2-({[2-({[(2-furylmethyl)amino]carbonyl}amino)pyridin-4-yl]methyl}amino)benzamide]",> 6.30
6,"O=C(NCc1ccc(N2CCOCC2)cc1)c1cc(CNc2ccccc2C(=O)Nc2ccc3c(c2)OC(F)(F)O3)ccn1 [Example 133, 4-{[(2-{[(2,2-difluoro-1,3-benzodioxol-5-yl)amino]carbonyl}phenyl)amino]methyl}-N-(4-morpholin-4-ylbenzyl)pyridine-2-carboxamide]",> 6.30

# Results, then the molecule that gave them:
row,pIC50,SMILES
1,> 6.30,"CNc1nccc(CNc2ccccc2C(=O)Nc2ccc3c(c2)OC(F)(F)O3)n1 [Example 49, N-(2,2-difluoro-1,3-benzodioxol-5-yl)-2-({[2-(methylamino)pyrimidin-4-yl]methyl}amino)benzamide]"
2,> 6.30,"O=C(Nc1ccc2c(c1)OC(F)(F)O2)c1ccccc1NCc1ccncc1 [Example 5, N-(2,2-difluoro-1,3-benzodioxol-5-yl)-2-[(pyridin-4-ylmethyl)amino]benzamide]"
3,> 6.30,"N#Cc1cc(CNc2ccccc2C(=O)Nc2ccc3c(c2)C(F)(F)OC(F)(F)O3)ccn1 [Example 23, 2-{[(2-cyanopyridin-4-yl)methyl]amino}-N-(2,2,4,4-tetrafluoro-4H-1,3-benzodioxin-6-yl)benzamide]"
4,> 6.30,"O=C(Nc1ccc2c(c1)OC(F)(F)O2)c1cccnc1NCc1ccncc1 [Example 15, N-(2,2-difluoro-1,3-benzodioxol-5-yl)-2-[(pyridin-4-ylmethyl)amino]nicotinamide]"
5,> 6.30,"CCCCNC(=O)Nc1cc(CNc2ccccc2C(=O)Nc2ccc3c(c2)OC(F)(F)O3)ccn1 [Example 170, 2-{[(2-{[(butylamino)carbonyl]amino}pyridin-4-yl)methyl]amino}-N-(2,2-difluoro-1,3-benzodioxol-5-yl)benzamide]"
6,> 6.30,"CCOC(=O)c1cc(CNc2ccccc2C(=O)Nc2ccc3c(c2)OC(F)(F)O3)ccn1 [Example 82, Ethyl 4-{[(2-{[(2,2-difluoro-1,3-benzodioxol-5-yl)amino]carbonyl}phenyl)amino]methyl}pyridine-2-carboxylate]"
7,> 6.30,"O=C(NCc1ccncc1)c1cc(CNc2ccccc2C(=O)Nc2ccc3c(c2)OC(F)(F)O3)ccn1 [Example 104, 4-{[(2-{[(2,2-difluoro-1,3-benzodioxol-5-yl)amino]carbonyl}phenyl)amino]methyl}-N-(pyridin-4-ylmethyl)pyridine-2-carboxamide]"
8,> 6.30,"Cc1ccc(C(=O)Nc2ccc3c(c2)OC(F)(F)C(F)(F)O3)c(NCc2ccncc2)n1 [Example 13, 6-methyl-2-[(pyridin-4-ylmethyl)amino]-N-(2,2,3,3-tetrafluoro-2,3-dihydro-1,4-benzodioxin-6-yl)nicotinamide]"
9,> 6.30,"CNC(=O)c1cc(CNc2ccc(F)cc2C(=O)Nc2ccc3c(c2)OC(F)(F)C(F)(F)O3)ccn1 [Example 34, 4-{[(4-fluoro-2-{[(2,2,3,3-tetrafluoro-2,3-dihydro-1,4-benzodioxin-6-yl)amino]carbonyl}phenyl)amino]methyl}-N-methylpyridine-2-carboxamide]"
10,> 6.30,"O=C(Nc1ccc2c(c1)OC(F)(F)O2)c1ccccc1NCc1ccnc(NCCOCCO)c1 [Example 138, N-(2,2-difluoro-1,3-benzodioxol-5-yl)-2-{[(2-{[2-(2-hydroxyethoxy)ethyl]amino}pyridin-4-yl)methyl]amino}benzamide trifluoroacetate(salt)]"
11,> 6.30,"O=C(Nc1ccc2c(c1)OC(F)(F)C(F)(F)O2)c1ncccc1NCc1ccncc1 [Example 17, 3-[(Pyridin-4-ylmethyl)amino]-N-(2,2,3,3-tetrafluoro-2,3-dihydro-1,4-benzodioxin-6-yl)pyridine-2-carboxamide]"
